From patent US10316056B2, “Chemical compounds and use thereof for improving muscular quality” (BIOPHYTIS, priority 2014, dated 2019)

These compounds were tested on myostatin gene expression in C2C12 cells (assay: Inhibition of myostatin expression in C2C12 cells (qPCR)). Conditions: Mus musculus, percentage myostatin gene expression in cells in contact with the compounds related to control cells, C2C12, 6 h.
Format: cell-based
Method: After several experiments in which the C2C12 cells differentiated into myotubes were incubated in the presence of IGF-1 or 20E for 2 h 30 or 6 h, two screening tests were developed. Thus, the phosphorylation of the S6 protein kinase and the expression of the myostatin gene were studied in order to determine their modulation by a growth hormone or an ecdysone and to characterize these modulations from a statistical point of view. The C2C12 myoblast cells (ATCC CRL-1772) are seeded into 24-well plates at a density of 30 000 cells per well and cultured in a DMEM medium containing glucose in a proportion of 4.5 g/l and supplemented with fetal calf serum (10%) and with antibiotics (penicillin and streptomycin). Forty-eight hours later, the myoblasts are induced to differentiate by partial serum depletion (2% instead of 10%) for 5 days. The cells are then placed in a medium which is glucose-depleted (DMEM containing 1 g/l of glucose) and serum-free in the presence of the test molecules or of the references (100 ng/ml IGF-1 or 10 μ[…]) for 6 h. At the end of the experiment, the messenger RNAs (mRNAs) are extracted using the conventional methodology based on phenol and chloroform. Briefly, the cells are lysed in a Trizol solution (Sigma T9424) containing a strong acid and phenol. The mRNAs are separated from the proteins by addition of chloroform and then centrifugation. They are then precipitated from isopropanol and then suspended at a concentration of 1 μg/μl in an […] ultrapure water. 1 μg of mRNA is then converted by reverse transcription into complementary DNA by the AMV enzyme in the presence of a primer and of a mixture of nucleotides according to the protocol given by the supplier (Applied Biosystems 4368814). […] The qPCRs are carried out on a 7900HT Fast real-Time PCR detection system (Applied Biosystems). The programming conditions are standard and consist of 1 cycle at 95° C. for 15 min, followed by 40 cycles at 95° C. for 15 s and at 60° C. for 1 min and the program ends with a melt curve step between 60° C. and 95° C. […] Fluorescent probes bind to the double-stranded DNA and are fluorescent only once bound to the DNA. A fluorescence threshold is established by the machine's program. When the amount of DNA allows the fluorescent probe to exceed this threshold, a PCR cycle number, called “Ct” for “Cycle Threshold”, is obtained. It is this value which forms the basis of the calculations to quantify the DNA relatively. A ratio R is established between the amount of starting DNA of a sample and that of a control, which has not undergone treatment (i.e. […] R=2^-ΔΔCt).
With `CC([C@H]1CC[C@@]2(O)C3=CC(=O)[C@@H]4C[C@@H](O)[C@@H](O)C[C@]4(C)C3CC[C@]12C)N(CC1CCCO1)C(=O)C1CC1` (stereo partly drawn) [Compound 47, N-(tetrahydrofuran-2-ylmethyl)-N-[1-[(2S,3R,5R,10R,13R,14S,17S)-2,3,14-trihydroxy-10,13-dimethyl-6-oxo-2,3,4,5,9,11,12,15,16,17-decahydro-1H-cyclopenta[a]phenanthren-17-yl]ethyl]cyclopropanecarboxamide] the mrna remaining at 10 µM was < 70%.
`COCCN(C(=O)N1CCOCC1)C(C)[C@H]1CC[C@@]2(O)C3=CC(=O)[C@@H]4C[C@@H](O)[C@@H](O)C[C@]4(C)C3CC[C@]12C` (stereo partly drawn) [Compound 57, N-(2-methoxyethyl)-N-[1-[(2S,3R,5R,10R,13R,14S,17S)-2,3,14-trihydroxy-10,13-dimethyl-6-oxo-2,3,4,5,9,11,12,15,16,17-decahydro-1H-cyclopenta[a]phenanthren-17-yl]ethyl]morpholine-4-carboxamide] gave a mrna remaining at 10 µM of 71 to 85%.
In the case of `CC(=NOCC(=O)O)[C@H]1CCC2C3=CC(=O)[C@@H]4C[C@@H](O)[C@@H](O)C[C@]4(C)C3CC[C@@]21C` (stereo partly drawn) [Compound 4, 2-[1-[(2S,3R,5R,10R,13S,17S)-2,3-dihydroxy-10,13-dimethyl-6-oxo-1,2,3,4,5,9,11,12,14,15,16,17-dodecahydrocyclopenta[a]phenanthren-17-yl]ethylideneamino]oxyacetic acid], the mrna remaining at 10 µM is reported as < 70%.
For `CC(C)=CCO/N=C(/C)[C@H]1CC[C@@]2(O)C3=CC(=O)[C@@H]4C[C@@H](O)[C@@H](O)C[C@]4(C)C3CC[C@]12C` (stereo partly drawn) [Compound 30, (2S,3R,5R,10R,13R,14S,17S)-2,3,14-trihydroxy-10,13-dimethyl-17-(C-methyl-N-(3-methylbut-2-enoxy)carbonimidoyl)-2,3,4,5,9,11,12,15,16,17-decahydro-1H-cyclopenta[a]phenanthren-6-one], the mrna remaining at 10 µM was 71 to 85%.
`C[C@@H]1CN(CC(=O)[C@H]2CC[C@@]3(O)C4=CC(=O)[C@@H]5C[C@@H](O)[C@@H](O)C[C@]5(C)C4CC[C@]23C)C[C@H](C)O1` (stereo partly drawn) [Compound 83, (2S,3R,5R,10R,13R,14S,17S)-17-[2-[(2S,6R)-2,6-dimethylmorpholin-4-yl]acetyl]-2,3,14-trihydroxy-10,13-dimethyl-2,3,4,5,9,11,12,15,16,17-decahydro-1H-cyclopenta[a]phenanthren-6-one] gave a mrna remaining at 10 µM of 71 to 85%.
With `COCCO/N=C(/C)[C@H]1CC[C@@]2(O)C3=CC(=O)[C@@H]4C[C@@H](O)[C@@H](O)C[C@]4(C)C3CC[C@]12C` (stereo partly drawn) [Compound 29, (2S,3R,5R,10R,13R,14S,17S)-2,3,14-trihydroxy-17-(N-(2-methoxyethoxy)-C-methylcarbonimidoyl)-10,13-dimethyl-2,3,4,5,9,11,12,15,16,17-decahydro-1H-cyclopenta[a]phenanthren-6-one] the mrna remaining at 10 µM was < 70%.
Compound `C=CC(=O)N(CC1CCCO1)C(C)[C@H]1CC[C@@]2(O)C3=CC(=O)[C@@H]4C[C@@H](O)[C@@H](O)C[C@]4(C)C3CC[C@]12C` (stereo partly drawn) [Compound 48, N-(tetrahydrofuran-2-ylmethyl)-N-[1-[(2S,3R,5R,10R,13R,14S,17S)-2,3,14-trihydroxy-10,13-dimethyl-6-oxo-2,3,4,5,9,11,12,15,16,17-decahydro-1H-cyclopenta[a]phenanthren-17-yl]ethyl]prop-2-enamide] has a mrna remaining at 10 µM of 71 to 85%.
`CCO/N=C(/C)[C@H]1CC[C@@]2(O)C3=CC(=O)[C@@H]4C[C@@H](O)[C@@H](O)C[C@]4(C)C3CC[C@]12C` (stereo partly drawn) [Compound 23, (2S,3R,5R,10R,13R,14S,17S)-17-(N-ethoxy-C-methylcarbonimidoyl)-2,3,14-trihydroxy-10,13-dimethyl-2,3,4,5,9,11,12,15,16,17-decahydro-1H-cyclopenta[a]phenanthren-6-one] showed a mrna remaining at 10 µM of 71 to 85%.
For `CO/N=C1\C=C2C(CC[C@]3(C)[C@@H](C(C)N(CC(OC)OC)C(=O)C(C)C)CC[C@@]23O)[C@@]2(C)C[C@H](O)[C@H](O)C[C@@H]12` (stereo partly drawn) [Compound 38, N-(2,2-dimethoxyethyl)-2-methyl-N-[1-[(2S,3R,5R,6E,10R,13R,14S,17S)-2,3,14-trihydroxy-6-methoxyimino-10,13-dimethyl-2,3,4,5,9,11,12,15,16,17-decahydro-1H-cyclopenta[a]phenanthren-17-yl]ethyl]propanamide], the mrna remaining at 10 µM was < 70%.
With `CO/N=C(/C)[C@H]1CC[C@@]2(O)C3=CC(=O)[C@@H]4C[C@@H](O)[C@@H](O)C[C@]4(C)C3CC[C@]12C` (stereo partly drawn) [Compound 25, (2S,3R,5R,10R,13R,14S,17S)-17-(N-methoxy-C-methylcarbonimidoyl)-2,3,14-trihydroxy-10,13-dimethyl-2,3,4,5,9,11,12,15,16,17-decahydro-1H-cyclopenta[a]phenanthren-6-one] the mrna remaining at 10 µM was < 70%.
In the case of `COC(CN(C)C(C)[C@H]1CC[C@@]2(O)C3=CC(=O)[C@@H]4C[C@@H](O)[C@@H](O)C[C@]4(C)C3CC[C@]12C)OC` (stereo partly drawn) [Compound 79, (2S,3R,5R,10R,13R,14S,17S)-17-[1-(2,2-dimethoxyethyl(methyl)amino)ethyl]-2,3,14-trihydroxy-10,13-dimethyl-2,3,4,5,9,11,12,15,16,17-decahydro-1H-cyclopenta[a]phenanthren-6-one], the mrna remaining at 10 µM is reported as < 70%.
`COCCON=C(C)[C@H]1CC[C@@]2(O)C3=C/C(=N\OC)[C@@H]4C[C@@H](O)[C@@H](O)C[C@]4(C)C3CC[C@]12C` (stereo partly drawn) [Compound 19, (2S,3R,5R,6E,10R,13R,14S,17S)-17-(N-(2-methoxyethoxy)-C-methylcarbonimidoyl)-6-methoxyimino-10,13-dimethyl-2,3,4,5,9,11,12,15,16,17-decahydro-1H-cyclopenta[a]phenanthrene-2,3,14-triol] was tested, and the mrna remaining at 10 µM was 71 to 85%.
For `CO/N=C1/C=C2C3=CC[C@H](C(C)=NO)[C@@]3(C)CCC2[C@@]2(C)C[C@H](O)[C@H](O)C[C@@H]12` (stereo partly drawn) [Compound 7, 1-[(2S,3R,5R,6Z,10R,13R,17S)-2,3-dihydroxy-6-methoxyimino-10,13-dimethyl-1,2,3,4,5,9,11,12,16,17-decahydrocyclopenta[a]phenanthren-17-yl]ethanone oxime], the mrna remaining at 10 µM was < 70%.
For `CC(C)=CCON=C(C)[C@H]1CC[C@@]2(O)C3=C/C(=N\O)[C@@H]4C[C@@H](O)[C@@H](O)C[C@]4(C)C3CC[C@]12C` (stereo partly drawn) [Compound 21, (2S,3R,5R,10R,13R,14S,17S)-2,3,14-trihydroxy-10,13-dimethyl-17-(C-methyl-N-(3-methylbut-2-enoxy)carbonimidoyl)-2,3,4,5,9,11,12,15,16,17-decahydro-1H-cyclopenta[a]phenanthren-6-one oxime], the mrna remaining at 10 µM was < 70%.
In the case of `CO/N=C1\C=C2C(CC[C@]3(C)[C@@H](C(C)N(CC(F)F)C(=O)c4ccco4)CC[C@@]23O)[C@@]2(C)C[C@H](O)[C@H](O)C[C@@H]12` (stereo partly drawn) [Compound 37, N-(2,2-difluoroethyl)-N-[1-[(2S,3R,5R,6E,10R,13R,14S,17S)-2,3,14-trihydroxy-6-methoxyimino-10,13-dimethyl-2,3,4,5,9,11,12,15,16,17-decahydro-1H-cyclopenta[a]phenanthren-17-yl]ethyl]furan-2-carboxamide], the mrna remaining at 10 µM is reported as 71 to 85%.
`C/C(=N/OCCN1CCCC1)[C@H]1CC[C@@]2(O)C3=CC(=O)[C@@H]4C[C@@H](O)[C@@H](O)C[C@]4(C)C3CC[C@]12C` (stereo partly drawn) [Compound 36, (2S,3R,5R,10R,13R,14S,17S)-2,3,14-trihydroxy-10,13-dimethyl-17-(C-methyl-N-(2-pyrrolidin-1-ylethoxy)carbonimidoyl)-2,3,4,5,9,11,12,15,16,17-decahydro-1H-cyclopenta[a]phenanthren-6-one] was tested, and the mrna remaining at 10 µM was 71 to 85%.
`C/C(=N/OCCN(C)C)[C@H]1CC[C@@]2(O)C3=CC(=O)[C@@H]4C[C@@H](O)[C@@H](O)C[C@]4(C)C3CC[C@]12C` (stereo partly drawn) [Compound 35, (2S,3R,5R,10R,13R,14S,17S)-17-(N-(2-dimethylaminoethoxy)-C-methylcarbonimidoyl)-2,3,14-trihydroxy-10,13-dimethyl-2,3,4,5,9,11,12,15,16,17-decahydro-1H-cyclopenta[a]phenanthren-6-one] gave a mrna remaining at 10 µM of 71 to 85%.
`COC(CN(C(=O)C1CC1)C(C)[C@H]1CC[C@@]2(O)C3=CC(=O)[C@@H]4C[C@@H](O)[C@@H](O)C[C@]4(C)C3CC[C@]12C)OC` (stereo partly drawn) [Compound 65, N-(2,2-dimethoxyethyl)-N-[1-[(2S,3R,5R,10R,13R,14S,17S)-2,3,14-trihydroxy-10,13-dimethyl-6-oxo-2,3,4,5,9,11,12,15,16,17-decahydro-1H-cyclopenta[a]phenanthren-17-yl]ethyl]cyclopropanecarboxamide] was tested, and the mrna remaining at 10 µM was < 70%.
